Legend:
Vasopressin V1a receptor = Vasopressin V1a receptor (Homo sapiens, UniProt P37288); type: cell membranes, Membrane; settings: hek293; note: in other assays of this panel Not Active means under 50% inhibition at 10 µM
[1] = molecular target: Mitogen-activated protein kinase 3 (Homo sapiens, UniProt P27361); experiment: DRUGMATRIX: Protein Serine/Threonine Kinase, ERK1 enzyme inhibition (substrate: Myelin Basic Protein); set-up: species or system Escherichia coli; settings: Not Active = under 50% inhibition at 10 µM
[2] = molecular target: C-C chemokine receptor type 5 (Homo sapiens, UniProt P51681); type: cell membranes, Membrane; settings: hek293; note: in other assays of this panel Not Active means under 50% inhibition at 10 µM
Melanocortin receptor 5 = Melanocortin receptor 5 (Homo sapiens, UniProt P33032); type: cell membranes, HEK293, Membrane; settings: hek293; note: in other assays of this panel Not Active means under 50% inhibition at 10 µM
[3] = DRUGMATRIX: Sodium/nucleoside co-transporter radioligand binding (ligand: nitrobenzylthioinosine); type: cell membranes, Cavia porcellus, Dunkin-Hartley, Cerebral cortex, Membrane; settings: Not Active = under 50% inhibition at 10 µM
[4] = molecular target: Sodium-dependent noradrenaline transporter (Homo sapiens, UniProt P23975); experiment: DRUGMATRIX: Norepinephrine Transporter radioligand binding (ligand: [125I] RTI-55); type: cell membranes, MDCK, Membrane; settings: Not Active = under 50% inhibition at 10 µM; for Ki: read-out: Ki
Adenosine receptor A3 = molecular target: T1, Adenosine receptor A3 (Homo sapiens, UniProt P0DMS8); type: cell membranes, CHO-K1, Membrane;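 note: radioligand binding assay with AB-MECA serving as the labeled ligand; in other assays of this panel Not Active means under 50% inhibition at 10 µM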
T1 sequence (P0DMS8 whole entry): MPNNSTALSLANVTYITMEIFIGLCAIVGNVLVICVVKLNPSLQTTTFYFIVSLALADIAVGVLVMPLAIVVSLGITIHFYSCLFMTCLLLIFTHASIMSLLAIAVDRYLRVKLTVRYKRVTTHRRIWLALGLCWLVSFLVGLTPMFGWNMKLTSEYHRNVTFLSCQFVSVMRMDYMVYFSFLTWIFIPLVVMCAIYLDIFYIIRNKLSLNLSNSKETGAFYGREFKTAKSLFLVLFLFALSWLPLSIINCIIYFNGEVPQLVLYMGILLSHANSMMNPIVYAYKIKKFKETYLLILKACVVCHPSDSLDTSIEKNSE

Chain of Melanocortin receptor 5 (P33032 whole entry): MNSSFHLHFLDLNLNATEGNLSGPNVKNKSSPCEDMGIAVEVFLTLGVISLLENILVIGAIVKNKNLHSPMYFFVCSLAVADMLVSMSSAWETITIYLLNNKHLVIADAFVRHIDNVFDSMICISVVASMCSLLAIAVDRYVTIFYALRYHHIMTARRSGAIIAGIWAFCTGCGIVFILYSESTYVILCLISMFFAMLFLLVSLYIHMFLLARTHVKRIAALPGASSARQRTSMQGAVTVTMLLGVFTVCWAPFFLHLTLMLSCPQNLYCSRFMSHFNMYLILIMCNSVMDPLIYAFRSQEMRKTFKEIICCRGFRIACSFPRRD
Chain of Sodium-dependent noradrenaline transporter (P23975 whole entry): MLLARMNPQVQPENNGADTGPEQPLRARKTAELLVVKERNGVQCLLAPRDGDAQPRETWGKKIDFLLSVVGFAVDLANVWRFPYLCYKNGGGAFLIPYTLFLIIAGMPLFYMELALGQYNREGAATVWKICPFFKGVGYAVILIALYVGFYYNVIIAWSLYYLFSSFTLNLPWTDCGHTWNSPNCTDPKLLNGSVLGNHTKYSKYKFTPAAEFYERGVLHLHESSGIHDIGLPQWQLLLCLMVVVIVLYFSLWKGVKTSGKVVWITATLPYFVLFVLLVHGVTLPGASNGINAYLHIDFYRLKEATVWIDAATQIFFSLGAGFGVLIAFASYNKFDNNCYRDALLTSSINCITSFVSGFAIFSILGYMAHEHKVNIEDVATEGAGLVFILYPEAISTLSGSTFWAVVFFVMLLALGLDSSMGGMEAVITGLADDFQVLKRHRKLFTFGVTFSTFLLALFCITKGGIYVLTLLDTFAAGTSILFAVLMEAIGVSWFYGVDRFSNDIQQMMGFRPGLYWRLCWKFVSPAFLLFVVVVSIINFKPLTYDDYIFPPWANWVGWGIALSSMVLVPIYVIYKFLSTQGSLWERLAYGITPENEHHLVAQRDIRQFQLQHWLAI
Chain of C-C chemokine receptor type 5 (P51681 whole entry): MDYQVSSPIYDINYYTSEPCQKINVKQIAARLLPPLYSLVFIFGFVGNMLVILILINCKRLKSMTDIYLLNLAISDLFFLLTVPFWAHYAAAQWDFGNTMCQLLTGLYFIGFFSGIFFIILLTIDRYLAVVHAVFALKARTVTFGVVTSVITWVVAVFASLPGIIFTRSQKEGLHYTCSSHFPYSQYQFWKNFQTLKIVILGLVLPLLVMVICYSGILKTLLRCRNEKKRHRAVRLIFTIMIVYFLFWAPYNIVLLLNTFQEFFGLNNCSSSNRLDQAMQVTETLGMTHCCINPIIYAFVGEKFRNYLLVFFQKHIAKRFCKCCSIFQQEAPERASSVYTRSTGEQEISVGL
Chain of Mitogen-activated protein kinase 3 (P27361 whole entry): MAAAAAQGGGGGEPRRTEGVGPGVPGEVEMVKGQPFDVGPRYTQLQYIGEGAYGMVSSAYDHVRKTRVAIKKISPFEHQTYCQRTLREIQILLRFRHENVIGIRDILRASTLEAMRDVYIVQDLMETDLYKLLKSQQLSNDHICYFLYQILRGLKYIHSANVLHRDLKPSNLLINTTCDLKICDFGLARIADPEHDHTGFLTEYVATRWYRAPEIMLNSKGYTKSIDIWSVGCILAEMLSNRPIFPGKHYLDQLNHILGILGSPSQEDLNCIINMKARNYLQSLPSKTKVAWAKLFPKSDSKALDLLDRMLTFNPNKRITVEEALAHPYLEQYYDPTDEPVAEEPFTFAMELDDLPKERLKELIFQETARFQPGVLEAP
Chain of Vasopressin V1a receptor (P37288 whole entry): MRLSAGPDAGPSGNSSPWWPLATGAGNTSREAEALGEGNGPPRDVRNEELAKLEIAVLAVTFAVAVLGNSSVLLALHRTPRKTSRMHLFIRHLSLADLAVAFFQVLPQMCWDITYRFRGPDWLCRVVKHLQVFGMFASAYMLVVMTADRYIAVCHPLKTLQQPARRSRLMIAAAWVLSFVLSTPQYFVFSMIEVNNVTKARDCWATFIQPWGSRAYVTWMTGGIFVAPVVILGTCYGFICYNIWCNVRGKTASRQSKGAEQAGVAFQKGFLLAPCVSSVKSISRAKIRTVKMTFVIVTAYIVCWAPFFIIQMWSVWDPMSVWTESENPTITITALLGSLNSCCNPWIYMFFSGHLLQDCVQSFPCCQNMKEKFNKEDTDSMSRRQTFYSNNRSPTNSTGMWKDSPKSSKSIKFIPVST

Row | Compound | IC50 (Vasopressin V1a receptor) | IC50 [1] | IC50 [2] | IC50 (Melanocortin receptor 5) | IC50 [3] | Ki [3] | IC50 ([4]; mdck) | IC50 (Adenosine receptor A3; cho-k1) | IC50 (Adenosine receptor A3; read-out: IC50) | Ki (Adenosine receptor A3; read-out: Ki) | IC50 ([4]; read-out: IC50) | Ki [4] | IC50 ([1]; read-out: IC50)
1 | O=C(O)c1cc(=O)c2c(OCC(O)COc3cccc4oc(C(=O)O)cc(=O)c34)cccc2o1 [CROMOLYN] | Not Active | Not Active | Not Active | Not Active | Not Active | Not Active | Not Active | Not Active | – | – | – | – | –
2 | Cc1cccc(Nc2cc(Cl)nc(SCC(=O)O)n2)c1C [PIRINIXIC ACID] | Not Active | Not Active | Not Active | Not Active | Not Active | Not Active | Not Active | Not Active | – | – | – | – | –
3 | CC[C@H]1OC(=O)[C@H](C)[C@@H](O[C@H]2C[C@@](C)(OC)[C@@H](O)[C@H](C)O2)[C@H](C)[C@@H](O[C@@H]2O[C@H](C)C[C@H](N(C)C)[C@H]2O)[C@](C)(OC)C[C@@H](C)C(=O)[C@H](C)[C@@H](O)[C@]1(C)O [CLARITHROMYCIN] | Not Active | Not Active | Not Active | Not Active | Not Active | Not Active | Not Active | Not Active | – | – | – | – | –
4 | CCc1oc2ccccc2c1C(=O)c1cc(Br)c(O)c(Br)c1 [BENZBROMARONE] | Not Active | Not Active | Not Active | Not Active | Not Active | Not Active | Not Active | – | 5220 nM | 2950 nM | – | – | –
5 | CC[C@]1(O)CC[C@H]2[C@@H]3CCC4=CCCC[C@@H]4[C@H]3CC[C@@]21C | Not Active | Not Active | Not Active | Not Active | Not Active | Not Active | – | Not Active | – | – | 2100 nM | 2080 nM | –
6 | CC(C)(Oc1ccc(C2CC2(Cl)Cl)cc1)C(=O)O (stereo not drawn) [CIPROFIBRATE] | Not Active | Not Active | Not Active | Not Active | Not Active | Not Active | Not Active | Not Active | – | – | – | – | –
7 | CO[C@H]1[C@@H](O)[C@H](N)[C@@H](O[C@H]2O[C@H]([C@H](C)N)CC[C@H]2N)[C@H](O)[C@@H]1N(C)C(=O)CN [ASTROMICIN] | Not Active | Not Active | Not Active | Not Active | Not Active | Not Active | Not Active | Not Active | – | – | – | – | –
8 | Clc1cc2c(cc1Cl)Oc1cc(Cl)c(Cl)cc1O2 [2,3,7,8-TETRACHLORODIBENZO-P-DIOXIN] | Not Active | Not Active | Not Active | Not Active | Not Active | Not Active | Not Active | Not Active | – | – | – | – | –
9 | CNC(=C[N+](=O)[O-])NCCSCc1csc(CN(C)C)n1 [NIZATIDINE] | Not Active | Not Active | Not Active | Not Active | Not Active | Not Active | Not Active | Not Active | – | – | – | – | –
10 | N=C(N)N/N=C/c1c(Cl)cccc1Cl [GUANABENZ] | Not Active | Not Active | Not Active | Not Active | Not Active | Not Active | Not Active | Not Active | – | – | – | – | –
11 | CC(C)C[C@H]1C(=O)N2CCC[C@H]2[C@]2(O)O[C@](NC(=O)[C@@H]3C=C4c5cccc6[nH]c(Br)c(c56)C[C@H]4N(C)C3)(C(C)C)C(=O)N12 [BROMOCRIPTINE] | Not Active | Not Active | Not Active | Not Active | Not Active | Not Active | Not Active | Not Active | – | – | – | – | –
12 | COc1ccc2cc(CCC(C)=O)ccc2c1 [NABUMETONE] | Not Active | Not Active | Not Active | Not Active | Not Active | Not Active | – | Not Active | – | – | 1870 nM | 1850 nM | –
13 | CC(C(=O)O)c1ccc(CC2CCCC2=O)cc1 (stereo not drawn) [LOXOPROFEN] | Not Active | Not Active | Not Active | Not Active | Not Active | Not Active | Not Active | Not Active | – | – | – | – | –
14 | CCCCCC[C@H]1C(=O)O[C@H](C)[C@H](NC(=O)c2cccc(NC=O)c2O)C(=O)O[C@@H](C)[C@@H]1OC(=O)CC(C)C [ANTIMYCIN A] | Not Active | Not Active | Not Active | Not Active | Not Active | Not Active | Not Active | Not Active | – | – | – | – | –
15 | COc1ccc(Cc2nccc3cc(OC)c(OC)cc23)cc1OC [PAPAVERINE] | Not Active | Not Active | Not Active | Not Active | Not Active | Not Active | Not Active | Not Active | – | – | – | – | –
16 | O=c1cc(-c2ccccc2)oc2ccc3ccccc3c12 [BETA-NAPHTHOFLAVONE] | Not Active | – | Not Active | Not Active | Not Active | Not Active | Not Active | Not Active | – | – | – | – | 5470 nM
17 | CC(=O)O[C@]1(C(C)=O)CC[C@H]2[C@@H]3C=C(Cl)C4=CC(=O)[C@@H]5C[C@@H]5[C@]4(C)[C@H]3CC[C@@]21C [CYPROTERONE ACETATE] | Not Active | Not Active | Not Active | Not Active | Not Active | Not Active | Not Active | Not Active | – | – | – | – | –
18 | CCN[C@@H](C)Cc1cccc(C(F)(F)F)c1 [DEXFENFLURAMINE] | Not Active | Not Active | Not Active | Not Active | Not Active | Not Active | Not Active | Not Active | – | – | – | – | –
19 | Nn1nnc2ccccc21 | Not Active | Not Active | Not Active | Not Active | Not Active | Not Active | Not Active | Not Active | – | – | – | – | –
20 | O=C(O)Cc1ccc(-c2ccccc2)cc1 [FELBINAC] | Not Active | Not Active | Not Active | Not Active | Not Active | Not Active | Not Active | Not Active | – | – | – | – | –
